Experimental data taken from patent US20120316106A1, “SYNERGISTIC ANTIBIOTIC COMBINATIONS AND DERIVATIVES” (YEDA RESEARCH AND DEVELOPMENT CO. LTD., priority 2009, published 2012).
“Also recorded” adds a separate entry of the source. Like-named read-outs stand apart in the source and are kept apart here.

Tests used:
[1] = tested on: E. coli cell-free transcription-translation system; test: Inhibition of E. coli cell-free transcription-translation (firefly luciferase readout); format: biochemical
Procedure: (§1) To address this question, it was first verified that LM binds to the ribosome and inhibits protein synthesis. […] RNA probing was then utilized to follow the binding of LC and LM to the ribosome. For the consistency of structural data, RNA probing experiments were carried out using D. radiodurans large ribosomal subunits. Binding of LC and LM was analyzed using chemical modifying reagents 1-cyclohexyl-3-(2-morpholinoethyl) carbodiimide metho-p-toluene sulfonate (CMCT) and dimethyl sulfate (DMS).
(§2) Antibiotic binding and inhibition of cell-free translation were determined as described in (Xiong, L. et al., 2005, Antimicrob Agents Chemother 49, 281-288). Inhibition of the peptidyl transferase reaction by LC was performed and analyzed as described in. The data were analyzed using Prism 4 (GraphPad Software). RNA probing was carried out as described in (Moazed, D. and Noller, H. F., 1987, Biochemie 69, 879-884) using D50S.
The E. coli cell-free transcription-translation system for circular DNA (Promega) was pre-incubated with varying concentrations of antibiotics for 5 min at 20° C. The reactions (10 μl final volume) were initiated by adding 0.64 μg of pBestLuc plasmid DNA (Promega). Reactions were incubated for 40 min at 20° C. and stopped by chilling on ice. The activity of firefly luciferase synthesized in the reaction was determined in 96-well plates using Bright-Glo Luciferase Assay System (Promega) as recommended by the manufacturer.

[2] = tested on: D. radiodurans 50S ribosomal subunits (23S rRNA); test: RNA probing (chemical footprinting) of 23S rRNA with CMCT and DMS; format: binding; conditions: LC 50 μM, LM 500 μM, D50S 200 nM; for Protection of 23S rRNA residues from CMCT modification: ERY 50 μM
Procedure: as §1
Similar to ERY and other 14 member-ring macrolides, binding of LM results in protection of U2609 from CMCT modification and of A2058 and A2059 from DMS chemical modification performed on the 23S rRNA of D. Radiodurans in complex with the combinations of the antibiotics (FIGS. 6C,D). The idiosyncratic protections of 23S rRNA residues were exploited against CMCT modification, afforded by LC and LM, to interrogate their simultaneous interaction with the ribosome. […] However, the accessibility of these residues to CMCT is not affected by LM or ERY (FIG. 6). […] In contrast, and in agreement with the binding experiments, the LC-mediated protection of U2506 and U2585 is partially relieved upon addition of ERY (FIG. 6D) and ERY-dependent protection of U2609 is partly reversed when LC is present. Thus, while LC and ERY compete for the binding to the ribosome, LC and LM can bind simultaneously to their respective targets in the PTC and NPET.
as §2
RNA probing was carried out essentially as described (16, 46) using D. radiodurans 50S ribosomal subunits at 200 nM concentration and antibiotics at the following concentrations: LC—50 μM, LM—500 μM, ERY—50 μM. Prior to addition of the modifying reagents, ribosomal subunits were pre-incubated with the drug 10 min at 37° C. and then 10 min at 20° C.

[3] = tested on: Gram-positive bacteria; conditions: background statement; cited from earlier work
[4] = background statement; cited from earlier work
[5] = tested on: Staphylococcus aureus 70S ribosomes; test: Inhibition of peptidyl transferase (puromycin) reaction, 70S ribosomes; format: biochemical; conditions: S. aureus 70S ribosomes, FIG. 5B; read-out: IC50, inhibition of puromycin reaction (peptide bond formation)
Procedure: as §2
(§3) In the reaction catalyzed by large ribosomal subunits, D. radiodurans 50S subunits (200 nM final concentration) were combined in 50 μl of the reaction buffer (20 mM Tris-HCl, pH 8.0, 20 mM MgCl2, 400 mM KCl) with 28 nM [^3H]-fMet-tRNA, 1 mM puromycism at varying concentrations of LC. Reactions were initiated by addition of 25 μl methanol and incubated on ice for 30 min. Reactions were stopped and analyzed as described (Maguire et al., 2005, Mol Cell 20, 427-435). In the ribosome-based puromycin assay, 70S ribosomes of S. aureus (at a final concentration of 200 nM) were preincubated for 15 min at 37° C. in 50 μl of polyamine buffer (20 mM HEPES-KOH, pH 7.6, 6 mM Mg-acetate, 150 mM NH4Cl, 4 mM β-mercaptoethanol, 2 mM spermidine, 0.05 mM spermine) with 600 nM mRNA AAGGAGAUAAACAAUGGGU and 28 nM [^3H]-fMet-tRNA. After addition of varying concentrations of LC, puromycin was added to the final concentration of 0.5 mM and reactions were incubated for 15 m in at 37° C. […]

[6] = target: large ribosomal subunits of D. radiodurans; test: Inhibition of peptidyl transferase (puromycin) reaction, isolated large subunits; format: biochemical; conditions: FIG. 5B, read-out: IC50, inhibition of puromycin reaction (peptide bond formation)
Procedure: as §2, §3

[7] = target: D. radiodurans 50S subunits; test: Competition with 14C-ERY for binding to 50S subunits; conditions: 0.1 μM 50S, 0.1 μM 14C-erythromycin, FIG. 5C; read-out: IC50, displacement of 14C-ERY from D50S
From the text: S. rochei secretes two antibiotics, a 17-member ring macrocyclic LC and a 14-member ring macrolide, lankamycin (LM). LM is structurally similar to ERY (FIG. 1) and thus it was assumed that it is likely to bind to the ribosome at the site and orientation similar to ERY, namely at the NPET in immediate proximity to the PTC, the LC binding site. […] These observations raised the question whether, similarly to ERY, LM would also compete with LC for ribosome binding.
as §2
D. radiodurans 50S subunits (0.1 μM) were preincubated 15 min at 37° C. with 0.1 μM of ^14C-erthromycin (48.8 mCi/mmol, Perkin Elmer) in 100 μl binding buffer (20 mM Tris-HCl, pH 7.5, 10 mM MgCl2, 250 mM NH4Cl, 6 mM β-mercaptoethanol). […] The ribosome-antibiotic complexes were purified by gel filtration in BioGel P30 spin columns as described (Xiong, L. et al. ibid) and the amount of ribosome-bound radioactivity was measured by scintillation counting.

[8] = tested on: eukaryotic cell-free translation; conditions: background statement; cited from earlier work
[9] = Table 2, read-out: [IC50] for antibiotic inhibition of cell free translation
[10] = FIG. 5A / 5D, read-out: IC50, inhibition of bacterial (E. coli) cell-free transcription-translation

SMILES | IC50 [1, 9] | Protection of 23S rRNA residues from CMCT modification [2] | IC50 [1, 10] | Protection of 23S rRNA residues from DMS modification [2] | Antibiotic activity against Gram-positive bacteria [3] | further results
CC[C@H]1OC(=O)[C@H](C)[C@@H](O[C@H]2C[C@@](C)(OC)[C@@H](O)[C@H](C)O2)[C@H](C)[C@@H](O[C@@H]2O[C@H](C)C[C@H](N(C)C)[C@H]2O)[C@](C)(O)C[C@@H](C)C(=O)[C@H](C)[C@@H](O)[C@]1(C)O [ERY, erythromycin, reference compound] | 200 nM | strongly protect U2609 |  |  |  | 
CO[C@H]1C[C@@H](C)O[C@@H](O[C@@H]2[C@@H](C)[C@H](O[C@H]3C[C@@](C)(OC)[C@H](OC(C)=O)[C@H](C)O3)[C@@H](C)C(=O)O[C@H]([C@@H](C)[C@H](C)O)[C@H](C)[C@H](OC(C)=O)[C@@H](C)C(=O)[C@@](C)(O)C[C@@H]2C)[C@@H]1O [LM, lankamycin] |  | strongly protect U2609 | 275000 ± 36000 nM | protects A2059 and A2058 from DMS modification | weak antibiotic activity | Toxicity in animal models [4]: low toxicity
CC(=O)C(=O)N[C@@H]1/C=C(C)/C=C/[C@@H](O)C/C=C(C)/C=C/[C@@H](O)C[C@H]2OC(=O)[C@]1(C)C(=O)[C@@H]2C [LC, Lankacidin C] |  | shields U2506 and U2585 from alterations; also recorded: no effect on this nucleotide | 1500 ± 100 nM | A2059 became partially protected from DMS whereas modification of A2058 was increased | inhibits growth of Gram-positive bacteria | IC50 [5]: 320 ± 20 nM; IC50 [6]: 10000 ± 6000 nM; IC50 [7]: 355 ± 26 nM; Effect on eukaryotic cell-free translation [8]: little effect
CC1=C\[C@@H](O)CC(=O)Cc2nc(co2)C(=O)N2CCC=C2C(=O)O[C@H](C(C)C)[C@H](C)/C=C/C(=O)NC\C=C\1 [Virginiamycin M] | 800 nM |  |  |  |  | 
CC[C@H]1NC(=O)[C@@H](NC(=O)c2ncccc2O)[C@@H](C)OC(=O)[C@H](c2ccccc2)NC(=O)[C@@H]2CC(=O)CCN2C(=O)[C@H](Cc2ccccc2)N(C)C(=O)[C@@H]2CCCN2C1=O [Virginiamycin S] | 2500 nM |  |  |  |  | 
